Data from ChEMBL document CHEMBL1201862, “PubChem BioAssay data set” (2004).
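Results reflect a 48-hour exposure of cells in 96-well plates to compound at five concentrations. GI50: concentration for 50% inhibition of growth.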 Calls of active or inactive are those of the source. No stated cut-off is given here; in the data, active = GI50 up to about 1.1 µM and inactive = higher.

How the values were obtained:
Test in all cases: NCI tumour cell line growth inhibition, 48 h
KM12 = system: KM12
RXF 393 = system: RXF 393
NCI-H460 = system: NCI-H460
MCF7 = system: MCF7
EKVX = system: EKVX
IGROV-1 = system: IGROV-1
786-0 = system: 786-0
SK-OV-3 = system: SK-OV-3
UACC-257 = system: UACC-257
SF-268 = system: SF-268
PC-3 = system: PC-3
HCC 2998 = system: HCC 2998
ACHN = system: ACHN
OVCAR-5 = system: OVCAR-5
SK-MEL-28 = system: SK-MEL-28
HOP-62 = system: HOP-62
MDA-N = system: MDA-N
SNB-19 = system: SNB-19
M14 = system: M14
OVCAR-3 = system: OVCAR-3
SF-295 = system: SF-295
OVCAR-4 = system: OVCAR-4
HCT-116 = system: HCT-116
SW-620 = system: SW-620
COLO 205 = system: COLO 205
UO-31 = system: UO-31
SN12C = system: SN12C
NCI/ADR-RES = system: NCI/ADR-RES
A498 = system: A498
HL-60 = system: HL-60
BT-549 = system: BT-549
DU-145 = system: DU-145
SK-MEL-5 = system: SK-MEL-5
Hs-578T = system: Hs-578T
TK-10 = system: TK-10
U-251 = system: U-251
SR = system: SR
T47D = system: T47D
K562 = system: K562
NCI-H23 = system: NCI-H23
Malme-3M = system: Malme-3M
A549 = system: A549
SK-MEL-2 = system: SK-MEL-2
CCRF-CEM = system: CCRF-CEM
MOLT-4 = system: MOLT-4
LOX IMVI = system: LOX IMVI
NCI-H226 = system: NCI-H226
UACC-62 = system: UACC-62
SNB-75 = system: SNB-75
CAKI-1 = system: CAKI-1
HOP-92 = system: HOP-92
HCT-15 = system: HCT-15
MDA-MB-231 = system: MDA-MB-231
RPMI-8226 = system: RPMI-8226
HT-29 = system: HT-29
OVCAR-8 = system: OVCAR-8
MDA-MB-435 = system: MDA-MB-435
SF-539 = system: SF-539
NCI-H522 = system: NCI-H522

CN1C(=O)N/C(=C\c2ccc(S(=O)(=O)N/N=C\C(O)C(O)C(O)CO)cc2)C1=O (stereo not given)
GI50 (KM12): > 100 µM (inactive)
GI50 (RXF 393): > 100 µM (inactive)
GI50 (NCI-H460): > 100 µM (inactive)
GI50 (MCF7): > 100 µM (inactive)
GI50 (EKVX): > 100 µM (inactive)
GI50 (IGROV-1): > 100 µM (inactive)
GI50 (786-0): > 100 µM (inactive)
GI50 (SK-OV-3): > 100 µM (inactive)
GI50 (UACC-257): > 100 µM (inactive)
GI50 (SF-268): > 100 µM (inactive)
GI50 (PC-3): > 100 µM (inactive)
GI50 (HCC 2998): > 100 µM (inactive)
GI50 (ACHN): > 100 µM (inactive)
GI50 (OVCAR-5): > 100 µM (inactive)
GI50 (SK-MEL-28): > 100 µM (inactive)
GI50 (HOP-62): > 100 µM (inactive)
GI50 (MDA-N): > 100 µM (inactive)
GI50 (SNB-19): > 100 µM (inactive)
GI50 (M14): > 100 µM (inactive)
GI50 (OVCAR-3): > 100 µM (inactive)
GI50 (SF-295): > 100 µM (inactive)
GI50 (OVCAR-4): > 100 µM (inactive)
GI50 (HCT-116): > 100 µM (inactive)
GI50 (SW-620): > 100 µM (inactive)
GI50 (COLO 205): > 100 µM (inactive)
GI50 (UO-31): > 100 µM (inactive)
GI50 (SN12C): > 100 µM (inactive)
GI50 (NCI/ADR-RES): > 100 µM (inactive)
GI50 (A498): > 100 µM (inactive)
GI50 (HL-60): > 100 µM (inactive)
GI50 (BT-549): > 100 µM (inactive)
GI50 (DU-145): > 100 µM (inactive)
GI50 (SK-MEL-5): > 100 µM (inactive)
GI50 (Hs-578T): > 100 µM (inactive)
GI50 (TK-10): > 100 µM (inactive)
GI50 (U-251): > 100 µM (inactive)
GI50 (SR): > 100 µM (inactive)
GI50 (T47D): > 100 µM (inactive)
GI50 (K562): > 100 µM (inactive)
GI50 (NCI-H23): > 100 µM (inactive)
GI50 (Malme-3M): > 100 µM (inactive)
GI50 (A549): > 100 µM (inactive)
GI50 (SK-MEL-2): > 100 µM (inactive)
GI50 (CCRF-CEM): > 100 µM (inactive)
GI50 (MOLT-4): > 100 µM (inactive)
GI50 (LOX IMVI): > 100 µM (inactive)
GI50 (NCI-H226): > 10 µM (inactive)
GI50 (UACC-62): > 100 µM (inactive)
GI50 (SNB-75): > 100 µM (inactive)
GI50 (CAKI-1): > 100 µM (inactive)
GI50 (HOP-92): > 100 µM (inactive)
GI50 (HCT-15): > 100 µM
GI50 (MDA-MB-231): > 100 µM (inactive)
GI50 (RPMI-8226): > 100 µM (inactive)
GI50 (HT-29): > 100 µM (inactive)
GI50 (OVCAR-8): > 100 µM (inactive)
GI50 (MDA-MB-435): > 100 µM (inactive)

N#Cc1c(Cl)c2ccccc2n2c1nc1ccccc12
GI50 (KM12): 34.1 µM (inactive)
GI50 (RXF 393): 22.6 µM (inactive)
GI50 (NCI-H460): 69.7 µM (inactive)
GI50 (MCF7): 39.9 µM (inactive)
GI50 (EKVX): 19.9 µM (inactive)
GI50 (IGROV-1): 13.9 µM (inactive)
GI50 (786-0): 19.7 µM (inactive)
GI50 (SK-OV-3): 87.9 µM (inactive)
GI50 (UACC-257): 42.4 µM (inactive)
GI50 (SF-268): 27.2 µM (inactive)
GI50 (PC-3): 31 µM (inactive)
GI50 (HCC 2998): 19.6 µM (inactive)
GI50 (ACHN): 18 µM (inactive)
GI50 (OVCAR-5): > 100 µM (inactive)
GI50 (SK-MEL-28): 79.3 µM (inactive)
GI50 (HOP-62): 38 µM (inactive)
GI50 (MDA-N): 35 µM (inactive)
GI50 (SNB-19): 74.6 µM (inactive)
GI50 (M14): 19.6 µM (inactive)
GI50 (OVCAR-3): 36.5 µM (inactive)
GI50 (SF-295): 59.7 µM (inactive)
GI50 (OVCAR-4): 27.4 µM (inactive)
GI50 (HCT-116): 18.3 µM (inactive)
GI50 (SW-620): 29.1 µM (inactive)
GI50 (COLO 205): 23.1 µM (inactive)
GI50 (UO-31): 16.1 µM (inactive)
GI50 (SN12C): 25.4 µM (inactive)
GI50 (NCI/ADR-RES): 23.3 µM (inactive)
GI50 (A498): > 100 µM (inactive)
GI50 (HL-60): 5.33 µM (inactive)
GI50 (BT-549): 71 µM (inactive)
GI50 (DU-145): 27.7 µM (inactive)
GI50 (Hs-578T): 17.7 µM (inactive)
GI50 (TK-10): 19.4 µM (inactive)
GI50 (U-251): 92.7 µM (inactive)
GI50 (SR): 50 µM (inactive)
GI50 (T47D): 27.2 µM (inactive)
GI50 (K562): 18.9 µM (inactive)
GI50 (NCI-H23): 24.2 µM (inactive)
GI50 (A549): > 100 µM (inactive)
GI50 (SK-MEL-2): 37.3 µM (inactive)
GI50 (CCRF-CEM): 11.2 µM (inactive)
GI50 (MOLT-4): 30.3 µM (inactive)
GI50 (LOX IMVI): 10.8 µM (inactive)
GI50 (SF-539): 19.4 µM (inactive)
GI50 (NCI-H226): 21.6 µM (inactive)
GI50 (UACC-62): 43.5 µM (inactive)
GI50 (SNB-75): 60.4 µM (inactive)
GI50 (CAKI-1): 21.9 µM (inactive)
GI50 (HOP-92): 19.7 µM (inactive)
GI50 (HCT-15): 15.2 µM
GI50 (MDA-MB-231): 23.8 µM (inactive)
GI50 (RPMI-8226): 31.3 µM (inactive)
GI50 (HT-29): 20.3 µM (inactive)
GI50 (OVCAR-8): 21.9 µM (inactive)
GI50 (MDA-MB-435): 56.1 µM (inactive)

Cc1c(-c2ccccc2)oc(=O)c2ccccc12
GI50 (KM12): 23.4 µM (inactive)
GI50 (RXF 393): 16.5 µM (inactive)
GI50 (NCI-H460): 26.4 µM (inactive)
GI50 (MCF7): 20.4 µM (inactive)
GI50 (EKVX): 18.5 µM (inactive)
GI50 (IGROV-1): 20.2 µM (inactive)
GI50 (786-0): 24.2 µM (inactive)
GI50 (SK-OV-3): 22.8 µM (inactive)
GI50 (UACC-257): 15.5 µM (inactive)
GI50 (SF-268): 17.4 µM (inactive)
GI50 (PC-3): 24.4 µM (inactive)
GI50 (HCC 2998): 18.2 µM (inactive)
GI50 (ACHN): 26.2 µM (inactive)
GI50 (OVCAR-5): 30.8 µM (inactive)
GI50 (SK-MEL-28): 19.4 µM (inactive)
GI50 (HOP-62): 22.1 µM (inactive)
GI50 (MDA-N): 20 µM (inactive)
GI50 (SNB-19): 30.7 µM (inactive)
GI50 (M14): 22.5 µM (inactive)
GI50 (OVCAR-3): 20.2 µM (inactive)
GI50 (SF-295): 18.3 µM (inactive)
GI50 (OVCAR-4): 17.5 µM (inactive)
GI50 (HCT-116): 24.6 µM (inactive)
GI50 (COLO 205): 16 µM (inactive)
GI50 (UO-31): 19 µM (inactive)
GI50 (SN12C): 17.7 µM (inactive)
GI50 (NCI/ADR-RES): 28.4 µM (inactive)
GI50 (A498): > 10 µM (inactive)
GI50 (BT-549): 13.7 µM (inactive)
GI50 (NCI-H522): 13.8 µM (inactive)
GI50 (DU-145): 37.7 µM (inactive)
GI50 (SK-MEL-5): 18.5 µM (inactive)
GI50 (Hs-578T): 17.1 µM (inactive)
GI50 (TK-10): 23.6 µM (inactive)
GI50 (U-251): 17.9 µM (inactive)
GI50 (SR): 10.3 µM (inactive)
GI50 (T47D): 30.5 µM (inactive)
GI50 (K562): 30.2 µM (inactive)
GI50 (NCI-H23): 24.8 µM (inactive)
GI50 (Malme-3M): 21.7 µM (inactive)
GI50 (A549): 25 µM (inactive)
GI50 (SK-MEL-2): 20.4 µM (inactive)
GI50 (CCRF-CEM): 18.4 µM (inactive)
GI50 (MOLT-4): 11 µM (inactive)
GI50 (LOX IMVI): 19.1 µM (inactive)
GI50 (SF-539): 18.3 µM (inactive)
GI50 (NCI-H226): 17.5 µM (inactive)
GI50 (UACC-62): 16.9 µM (inactive)
GI50 (SNB-75): 12.4 µM (inactive)
GI50 (CAKI-1): 22.4 µM (inactive)
GI50 (HOP-92): 11.8 µM (inactive)
GI50 (HCT-15): 19.8 µM
GI50 (MDA-MB-231): 16.7 µM (inactive)
GI50 (RPMI-8226): 16.7 µM (inactive)
GI50 (HT-29): 15.5 µM (inactive)
GI50 (OVCAR-8): 27.1 µM (inactive)
GI50 (MDA-MB-435): 15.6 µM (inactive)
